Data taken from patent US10800791B2, “Triazole ACC inhibitors and uses thereof” (Gilead Apollo, LLC, priority 2015, dated 2020).
Converted amounts (≈) assume the structure as drawn. Where two headings read alike, the source gives them in different places.

Assays:
C. albicans = assay: Antifungal Activity Assay (broth microtiter MIC), C. albicans; type: cell-based, Candida albicans; conditions: 3 replicates, MIC recorded at 48 h; for MIC: Candida albicans, ATCC90028, 48 h, ATCC 90028, read-out: MIC, C. albicans ATCC 90028
How it was run: (§1)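 Broth microdilution per CLSI M27-A3 in RPMI 1640+MOPS, inoculum 2.5×10^3 CFU/mL final from overnight Sabouraud dextrose agar cultures at 35° C. Compounds diluted from DMSO stock to 128 μg/mL in water. MIC read visually versus growth control at 48 h.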

[1] = test system: Fusarium virguliforme (Fv); assay: Growth inhibition assay of fungal pathogens, Fv; type: cell-based; conditions: 48 h
Method: (§2) Compounds of the present invention were evaluated in a growth inhibition assay to determine the ability to control the growth of fungal pathogens, such as Botrtyis cinerea (Bc), Collectotrichum graminicola (Cg), Diplodia maydis (Dm), Fusarium moniliforme (Fm), Fusarium virguliforme (Fv), Phytophthora capsici (Pc), Rhizoctonia solani (Rs), and Septoria tritici (St).
(§3) Compounds to be tested were dissolved in DMSO at 2.5 mg/ml to produce compound stock solutions (“stocks”). Stocks were diluted with DMSO by a five-fold dilution in a 96-well stock plate, and two sets of final concentrations of 50, 10, and 2 ppm or 2, 0.4, and 0.08 ppm were obtained in vitro. A set of positive controls was also prepared, with various concentrations of Soraphen (2, 0.4, and 0.08 ppm), Metalaxyl (1.1, 0.22, and 0.04 ppm), and Metconazole (2, 0.4, and 0.08 ppm or 0.2, 0.04, and 0.008 ppm) after the five-fold dilutions. Negative controls on each plate included 2% DMSO, water, and a blank (media+2% DMSO).
(§4) Fungal spores were isolated from previously sub-cultured plates of Botrtyis cinerea (Bc), Collectotrichum graminicola (Cg), Diplodia maydis (Dm), Fusarium moniliforme (Fm), Fusarium virguliforme (Fv), Phytophthora capsici (Pc), and Septoria tritici (St). The isolated spores were diluted to individual concentrations with a 17% V8 liquid media. For Rhizoctonia solani (Rs) and Pythium irregulare, 1.5 mm mycelial plugs were used in place of spores and/4 Potato Dextrose Broth (PDB) was used for dilution. The spore concentrations and plug sizes were based on growth curves generated at 48 hours for each pathogen.
(§5) In a second 96-well plate, the spores or mycelial plugs, media, diluted compound solutions, and controls were combined. Once the compound was added, a true final concentration of compound in each well was measured by an OD600 reading, which adjusted for any compound precipitation that might have occurred in the well. Plate readings were repeated at both 24 and 48 hours. The blank negative control was used as a background subtraction. Additional visual ratings were performed at both 24 and 48 hours for checking on precipitation and confirming efficacy. Visual and OD600 ratings of the compounds at 48 hours were compared to the 2% DMSO negative control, and the percent of pathogen growth inhibition was determined based on those values.

human (hACC2) = human (hACC2) (Homo sapiens, UniProt O00763); assay: In vitro ACC inhibition assay (ADP-Glo), hACC2; type: biochemical; conditions: 5 nM ACC2, 20 μM ATP, 20 μM acetyl-CoA
Method: The detailed procedure is as follows. […] 10 μL ADP glo reagent was added. […] 20 μL kinase detection reagent was added.

Diplodia maydis (Dm) = assay: Growth inhibition assay of fungal pathogens, Dm; type: cell-based; conditions: Stenocarpella maydis, 48 h
Method: as §2, §3, §4, §5

[2] = test system: Fusarium moniliforme (Fm); assay: Growth inhibition assay of fungal pathogens, Fm; type: cell-based; conditions: for IC90: Fusarium verticillioides, 48 h, read-out: Concentration at 90% Inhibition Fm
Method: as §2, §3, §4, §5

fungal (fACC2) = fungal (fACC2) (UniProt Q00955); conditions: read-out: fACC2 (in vitro ACC2 Inhibition Assay, IC50), ADP-Glo, 5 nM ACC2, 20 μM ATP, 20 μM acetyl-CoA
[3] = test system: Collectotrichum graminicola (Cg); assay: Growth inhibition assay of fungal pathogens, Cg; type: cell-based; conditions: 48 h
Method: as §2, §3, §4, §5

Botrtyis cinerea (Bc) = assay: Growth inhibition assay of fungal pathogens, Bc; type: cell-based; conditions: 48 h
Method: as §2, §3, §4, §5

Septoria tritici (St) = assay: Growth inhibition assay of fungal pathogens, St; type: cell-based; conditions: Zymoseptoria tritici, 48 h
Method: as §2, §3, §4, §5

Rhizoctonia solani (Rs) = assay: Growth inhibition assay of fungal pathogens, Rs; type: cell-based; conditions: 48 h
Method: as §2, §3, §4, §5

C. krusei = assay: Antifungal Activity Assay (broth microtiter MIC), C. krusei; type: cell-based, Candida krusei; conditions: 3 replicates, MIC recorded at 48 h; for MIC: Pichia kudriavzevii, ATCC6258, 48 h, ATCC 6258, read-out: MIC, C. krusei ATCC 6258
How it was run: as §1

[4] = test system: Phytophthora capsici (Pc); assay: Growth inhibition assay of fungal pathogens, Pc; type: cell-based; conditions: 48 h
Method: as §2, §3, §4, §5

C. parapsilosis = assay: Antifungal Activity Assay (broth microtiter MIC), C. parapsilosis; type: cell-based, Candida parapsilosis; conditions: 3 replicates, MIC recorded at 48 h; for MIC: Lodderomyces parapsilosis, ATCC22019, 48 h, ATCC 22019, read-out: MIC, C. parapsilosis ATCC 22019
How it was run: as §1

Chain of fungal (fACC2) (Q00955 whole entry): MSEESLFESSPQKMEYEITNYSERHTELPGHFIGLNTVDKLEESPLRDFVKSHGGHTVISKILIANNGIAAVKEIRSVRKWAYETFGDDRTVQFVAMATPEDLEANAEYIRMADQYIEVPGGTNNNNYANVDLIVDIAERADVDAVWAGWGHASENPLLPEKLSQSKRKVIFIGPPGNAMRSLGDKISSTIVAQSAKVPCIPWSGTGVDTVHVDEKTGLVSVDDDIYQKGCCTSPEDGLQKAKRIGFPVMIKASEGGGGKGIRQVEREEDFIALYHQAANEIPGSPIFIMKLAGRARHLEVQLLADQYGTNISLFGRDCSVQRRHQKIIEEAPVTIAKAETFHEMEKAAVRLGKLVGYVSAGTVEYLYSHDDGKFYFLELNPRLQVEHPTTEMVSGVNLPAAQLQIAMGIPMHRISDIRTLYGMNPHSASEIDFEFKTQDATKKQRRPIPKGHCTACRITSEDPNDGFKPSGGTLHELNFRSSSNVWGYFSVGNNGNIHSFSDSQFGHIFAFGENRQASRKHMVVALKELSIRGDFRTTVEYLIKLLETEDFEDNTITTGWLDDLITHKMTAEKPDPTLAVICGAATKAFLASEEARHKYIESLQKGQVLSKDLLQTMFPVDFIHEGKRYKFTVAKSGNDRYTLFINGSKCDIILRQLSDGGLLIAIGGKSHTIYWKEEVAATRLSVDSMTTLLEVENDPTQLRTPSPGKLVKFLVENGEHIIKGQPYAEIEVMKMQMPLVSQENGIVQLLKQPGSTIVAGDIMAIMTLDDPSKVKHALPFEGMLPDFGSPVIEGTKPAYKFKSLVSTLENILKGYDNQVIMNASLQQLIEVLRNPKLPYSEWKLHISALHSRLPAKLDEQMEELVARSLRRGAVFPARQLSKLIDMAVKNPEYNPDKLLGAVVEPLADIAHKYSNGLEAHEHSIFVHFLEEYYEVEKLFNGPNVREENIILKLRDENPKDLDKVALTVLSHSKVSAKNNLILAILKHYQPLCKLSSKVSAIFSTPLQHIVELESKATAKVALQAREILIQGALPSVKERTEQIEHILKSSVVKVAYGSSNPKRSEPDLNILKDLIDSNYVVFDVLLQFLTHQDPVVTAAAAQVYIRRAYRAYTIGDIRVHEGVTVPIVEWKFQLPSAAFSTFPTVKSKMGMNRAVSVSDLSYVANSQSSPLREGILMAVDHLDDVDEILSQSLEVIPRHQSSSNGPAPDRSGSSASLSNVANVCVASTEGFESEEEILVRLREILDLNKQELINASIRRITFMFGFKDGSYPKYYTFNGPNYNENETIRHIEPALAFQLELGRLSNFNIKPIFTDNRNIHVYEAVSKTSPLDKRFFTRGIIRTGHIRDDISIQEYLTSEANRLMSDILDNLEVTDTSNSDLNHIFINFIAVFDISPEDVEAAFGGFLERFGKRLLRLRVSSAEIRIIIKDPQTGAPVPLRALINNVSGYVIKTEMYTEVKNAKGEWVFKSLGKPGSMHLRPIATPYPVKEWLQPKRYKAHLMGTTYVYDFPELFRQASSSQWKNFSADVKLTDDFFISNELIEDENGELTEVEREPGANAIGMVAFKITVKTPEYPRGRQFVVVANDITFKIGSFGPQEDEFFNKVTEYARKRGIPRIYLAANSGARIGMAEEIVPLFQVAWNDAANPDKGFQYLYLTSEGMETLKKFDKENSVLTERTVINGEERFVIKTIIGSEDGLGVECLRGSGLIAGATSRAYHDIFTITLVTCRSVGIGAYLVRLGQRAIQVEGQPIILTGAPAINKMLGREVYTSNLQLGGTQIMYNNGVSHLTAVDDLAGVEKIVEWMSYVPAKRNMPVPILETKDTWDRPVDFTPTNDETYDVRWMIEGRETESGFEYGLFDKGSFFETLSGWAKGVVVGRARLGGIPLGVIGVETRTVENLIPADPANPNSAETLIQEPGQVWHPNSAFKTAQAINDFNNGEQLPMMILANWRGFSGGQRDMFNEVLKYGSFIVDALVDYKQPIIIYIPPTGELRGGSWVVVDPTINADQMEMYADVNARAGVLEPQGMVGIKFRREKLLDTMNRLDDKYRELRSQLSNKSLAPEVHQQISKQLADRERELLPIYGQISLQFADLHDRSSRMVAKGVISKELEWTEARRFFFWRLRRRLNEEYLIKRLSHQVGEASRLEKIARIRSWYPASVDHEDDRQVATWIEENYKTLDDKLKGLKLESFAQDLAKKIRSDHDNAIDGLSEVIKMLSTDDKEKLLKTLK
Chain of human (hACC2) (O00763 whole entry): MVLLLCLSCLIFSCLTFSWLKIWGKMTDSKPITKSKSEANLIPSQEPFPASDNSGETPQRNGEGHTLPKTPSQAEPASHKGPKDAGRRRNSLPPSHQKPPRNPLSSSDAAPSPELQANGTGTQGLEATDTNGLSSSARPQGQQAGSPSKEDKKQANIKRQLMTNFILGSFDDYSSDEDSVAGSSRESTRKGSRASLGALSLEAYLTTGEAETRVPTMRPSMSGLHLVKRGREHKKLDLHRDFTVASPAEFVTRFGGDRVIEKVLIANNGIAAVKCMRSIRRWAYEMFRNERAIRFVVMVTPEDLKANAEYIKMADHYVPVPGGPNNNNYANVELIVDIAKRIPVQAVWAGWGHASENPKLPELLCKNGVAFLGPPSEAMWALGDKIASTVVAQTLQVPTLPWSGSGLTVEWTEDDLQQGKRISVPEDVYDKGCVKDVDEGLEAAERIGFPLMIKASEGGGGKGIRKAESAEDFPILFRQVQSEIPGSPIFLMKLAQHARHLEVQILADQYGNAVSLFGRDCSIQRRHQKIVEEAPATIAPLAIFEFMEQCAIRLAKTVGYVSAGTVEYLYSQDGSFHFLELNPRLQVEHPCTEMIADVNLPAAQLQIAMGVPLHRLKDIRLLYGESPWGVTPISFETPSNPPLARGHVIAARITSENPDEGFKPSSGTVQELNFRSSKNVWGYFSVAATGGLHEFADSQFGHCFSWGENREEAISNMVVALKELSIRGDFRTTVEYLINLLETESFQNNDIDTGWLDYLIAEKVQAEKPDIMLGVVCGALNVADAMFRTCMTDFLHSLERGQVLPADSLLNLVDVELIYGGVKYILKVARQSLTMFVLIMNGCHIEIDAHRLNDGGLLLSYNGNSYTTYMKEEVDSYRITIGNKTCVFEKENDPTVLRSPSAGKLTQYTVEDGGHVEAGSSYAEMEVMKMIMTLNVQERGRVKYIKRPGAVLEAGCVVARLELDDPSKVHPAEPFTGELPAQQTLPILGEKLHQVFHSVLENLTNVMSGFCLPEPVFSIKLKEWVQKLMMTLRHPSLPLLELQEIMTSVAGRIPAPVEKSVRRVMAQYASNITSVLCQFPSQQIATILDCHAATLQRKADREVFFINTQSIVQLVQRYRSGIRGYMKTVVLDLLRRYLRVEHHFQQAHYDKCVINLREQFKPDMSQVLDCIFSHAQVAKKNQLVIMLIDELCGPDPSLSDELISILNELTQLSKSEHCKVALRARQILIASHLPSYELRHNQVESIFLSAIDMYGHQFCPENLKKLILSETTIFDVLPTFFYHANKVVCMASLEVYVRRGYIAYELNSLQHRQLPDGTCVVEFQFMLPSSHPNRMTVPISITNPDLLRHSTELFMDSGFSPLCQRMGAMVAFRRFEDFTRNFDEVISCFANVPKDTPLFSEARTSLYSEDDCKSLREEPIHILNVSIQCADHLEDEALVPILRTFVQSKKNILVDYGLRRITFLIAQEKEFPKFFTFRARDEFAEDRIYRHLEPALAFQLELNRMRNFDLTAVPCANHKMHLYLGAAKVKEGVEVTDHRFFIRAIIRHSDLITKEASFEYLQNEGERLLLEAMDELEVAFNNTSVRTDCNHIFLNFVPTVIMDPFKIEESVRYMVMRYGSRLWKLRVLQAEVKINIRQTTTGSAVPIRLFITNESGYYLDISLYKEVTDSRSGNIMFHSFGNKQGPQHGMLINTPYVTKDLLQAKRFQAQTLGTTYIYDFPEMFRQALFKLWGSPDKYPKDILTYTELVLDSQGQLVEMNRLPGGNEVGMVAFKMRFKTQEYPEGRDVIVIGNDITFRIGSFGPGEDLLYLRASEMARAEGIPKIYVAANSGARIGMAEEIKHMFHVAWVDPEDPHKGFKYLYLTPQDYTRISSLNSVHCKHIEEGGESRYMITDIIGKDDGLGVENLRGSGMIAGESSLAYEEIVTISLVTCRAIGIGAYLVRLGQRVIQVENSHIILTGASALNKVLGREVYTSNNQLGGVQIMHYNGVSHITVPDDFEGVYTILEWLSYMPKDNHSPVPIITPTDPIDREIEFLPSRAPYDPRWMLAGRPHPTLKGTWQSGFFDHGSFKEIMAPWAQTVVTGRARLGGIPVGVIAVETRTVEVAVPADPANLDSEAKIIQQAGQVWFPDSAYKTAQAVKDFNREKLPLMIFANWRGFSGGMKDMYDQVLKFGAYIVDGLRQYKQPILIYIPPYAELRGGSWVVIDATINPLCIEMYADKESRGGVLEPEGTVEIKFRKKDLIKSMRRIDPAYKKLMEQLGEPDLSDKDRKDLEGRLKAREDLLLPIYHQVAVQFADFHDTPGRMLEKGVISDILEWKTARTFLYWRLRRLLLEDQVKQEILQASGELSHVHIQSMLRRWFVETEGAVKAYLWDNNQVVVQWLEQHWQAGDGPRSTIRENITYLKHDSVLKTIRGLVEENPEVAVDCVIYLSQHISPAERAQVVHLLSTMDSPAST

In the case of `COCCO[C@@H](Cn1c(=O)n([C@@H](C)C(=O)NC(C)C)c(=O)c2c(C)c(-n3nccn3)sc21)c1cc(F)ccc1OC` [Compound I-66, (S)-2-(1-((R)-2-(5-fluoro-2-methoxyphenyl)-2-(2-methoxy-ethoxy)ethyl)-5-methyl-2,4-dioxo-6-(2H-1,2,3-triazol-2-yl)-1,4-dihydrothieno[2,3-d]pyrimidin-3(2H)-yl)-N-isopropylpropanamide], the “MIC, C. albicans ATCC 90028” value (C. albicans; Table 3a) is reported as “C (MIC of 2.1-4.0 μg/mL)”, the “MIC, C. albicans ATCC 90028” value (C. albicans; Table 3b (additional results)) is reported as “D (MIC of >4.01 μg/mL)” and the IC90 ([1]; read-out: Concentration at 90% Inhibition Fv, Fusarium virguliforme, growth inhibition at 48 hours vs 2% DMSO control) is reported as 0.4 µg/mL (≈ 0.68 µM). The IC90 ([1]; read-out: Concentration at 90% Inhibition Fv, Fusarium virguliforme, growth inhibition vs 2% DMSO control at 48 hours) was 0.4 µg/mL (≈ 0.68 µM), the IC50 (human (hACC2); Table 2a) was 5 to 10 nM and the IC50 (human (hACC2); Table 2b, additional results) was 5 to 10 nM. For the same compound, the IC90 (Diplodia maydis (Dm); read-out: Concentration at 90% Inhibition Dm, Diplodia maydis, growth inhibition at 48 hours vs 2% DMSO control) was 0.4 µg/mL (≈ 0.68 µM), the IC90 (Diplodia maydis (Dm); read-out: Concentration at 90% Inhibition Dm, Diplodia maydis, growth inhibition vs 2% DMSO control at 48 hours) was 0.4 µg/mL (≈ 0.68 µM) and the “Concentration at 90% Inhibition Fm” value ([2]; Fusarium moniliforme, growth inhibition at 48 hours vs 2% DMSO control) was “AA (compound concentration of 0.08 ppm at 90% inhibition of fungal pathogens)”. It also gave an IC90 [2] of 0.08 µg/mL (≈ 0.136 µM), an IC50 (fungal (fACC2); Table 2a) of 1 to 5 nM and an IC50 (fungal (fACC2); Table 2b, additional results) of 1 to 5 nM. For the same compound, the IC90 ([3]; read-out: Concentration at 90% Inhibition Cg, Collectotrichum graminicola, growth inhibition at 48 hours vs 2% DMSO control) was 0.4 µg/mL (≈ 0.68 µM), the IC90 ([3]; read-out: Concentration at 90% Inhibition Cg, Collectotrichum graminicola, growth inhibition vs 2% DMSO control at 48 hours) was 0.4 µg/mL (≈ 0.68 µM) and the IC90 (Botrtyis cinerea (Bc); read-out: Concentration at 90% Inhibition Bc, Botrtyis cinerea, growth inhibition at 48 hours vs 2% DMSO control) was 2 µg/mL (≈ 3.4 µM). For the same compound, the IC90 (Botrtyis cinerea (Bc); read-out: Concentration at 90% Inhibition Bc, Botrtyis cinerea, growth inhibition vs 2% DMSO control at 48 hours) was 2 µg/mL (≈ 3.4 µM), the IC90 (Septoria tritici (St); read-out: Concentration at 90% Inhibition St, Septoria tritici, growth inhibition at 48 hours vs 2% DMSO control) was over 50 µg/mL and the IC90 (Septoria tritici (St); read-out: Concentration at 90% Inhibition St, Septoria tritici, growth inhibition vs 2% DMSO control at 48 hours) was over 50 µg/mL. For the same compound, the IC90 (Rhizoctonia solani (Rs); read-out: Concentration at 90% Inhibition Rs, Rhizoctonia solani, mycelial plugs, growth inhibition at 48 hours vs 2% DMSO control) was 0.4 µg/mL (≈ 0.68 µM), the IC90 (Rhizoctonia solani (Rs); read-out: Concentration at 90% Inhibition Rs, Rhizoctonia solani, mycelial plugs, growth inhibition vs 2% DMSO control at 48 hours) was 0.08 µg/mL (≈ 0.136 µM) and the “MIC, C. krusei ATCC 6258” value (C. krusei; Table 3a) was “B (MIC of 1.1-2.0 μg/mL)”. The “MIC, C. krusei ATCC 6258” value (C. krusei; Table 3b (additional results)) was “C (MIC of 2.01-4.0 μg/mL)”, the IC90 ([4]; read-out: Concentration at 90% Inhibition Pc, Phytophthora capsici, growth inhibition at 48 hours vs 2% DMSO control) was 10 µg/mL (≈ 17 µM) and the IC90 ([4]; read-out: Concentration at 90% Inhibition Pc, Phytophthora capsici, growth inhibition vs 2% DMSO control at 48 hours) was over 50 µg/mL. For the same compound, the “MIC, C. parapsilosis ATCC 22019” value (C. parapsilosis; Table 3a) was “B (MIC of 1.1-2.0 μg/mL)” and the “MIC, C. parapsilosis ATCC 22019” value (C. parapsilosis; Table 3b (additional results)) was “B (MIC of 1.01-2.0 μg/mL)”.

With `COCCO[C@@H](Cn1c(=O)n([C@H](C)C(=O)NC(C)C)c(=O)c2c(C)c(-n3nccn3)sc21)c1cc(F)ccc1OC` [Compound I-67, (R)-2-(1-((R)-2-(5-fluoro-2-methoxyphenyl)-2-(2-methoxy-ethoxy)ethyl)-5-methyl-2,4-dioxo-6-(2H-1,2,3-triazol-2-yl)-1,4-dihydrothieno[2,3-d]pyrimidin-3(2H)-yl)-N-isopropylpropanamide] the MIC (C. albicans; Table 3a) was 1.1 to 2 µg/mL (≈ 1.87 to 3.4 µM), the MIC (C. albicans; Table 3b (additional results)) was over 4.01 µg/mL and the IC90 ([1]; growth inhibition vs 2% DMSO control at 48 hours, read-out: Concentration at 90% Inhibition Fv) was 0.4 µg/mL (≈ 0.68 µM). The IC50 (human (hACC2); Table 2a) was 5 to 10 nM, the IC50 (human (hACC2); Table 2b, additional results) was 5 to 10 nM and the IC90 (Diplodia maydis (Dm); Diplodia maydis, growth inhibition vs 2% DMSO control at 48 hours, read-out: Concentration at 90% Inhibition Dm) was 0.08 µg/mL (≈ 0.136 µM). It also gave an IC90 ([2]; Fusarium moniliforme, growth inhibition vs 2% DMSO control at 48 hours) of 0.08 µg/mL (≈ 0.136 µM), an IC50 (fungal (fACC2); Table 2a) of 1 to 5 nM and an IC50 (fungal (fACC2); Table 2b, additional results) of 1 to 5 nM. It also gave an IC90 ([3]; Collectotrichum graminicola, growth inhibition vs 2% DMSO control at 48 hours, read-out: Concentration at 90% Inhibition Cg) of 0.08 µg/mL (≈ 0.136 µM), an IC90 (Botrtyis cinerea (Bc); Botrtyis cinerea, growth inhibition vs 2% DMSO control at 48 hours, read-out: Concentration at 90% Inhibition Bc) of 0.08 µg/mL (≈ 0.136 µM) and an IC90 (Septoria tritici (St); Septoria tritici, growth inhibition vs 2% DMSO control at 48 hours, read-out: Concentration at 90% Inhibition St) of 10 µg/mL (≈ 17 µM). For the same compound, the IC90 (Rhizoctonia solani (Rs); mycelial plugs, growth inhibition vs 2% DMSO control at 48 hours, read-out: Concentration at 90% Inhibition Rs) was 0.08 µg/mL (≈ 0.136 µM), the MIC (C. krusei; Table 3a) was 0.25 to 1 µg/mL (≈ 0.425 to 1.7 µM) and the MIC (C. krusei; Table 3b (additional results)) was 2.01 to 4 µg/mL (≈ 3.41 to 6.8 µM). It also gave an IC90 ([4]; growth inhibition vs 2% DMSO control at 48 hours, read-out: Concentration at 90% Inhibition Pc) of over 50 µg/mL, an MIC (C. parapsilosis; Table 3a) of 1.1 to 2 µg/mL (≈ 1.87 to 3.4 µM) and an MIC (C. parapsilosis; Table 3b (additional results)) of 1.01 to 2 µg/mL (≈ 1.72 to 3.4 µM).
